Experimental data as given in US12410160B2 (Gilead Sciences, Inc., priority 2021, dated 2025).
Read-outs that look alike come from different tables or passages of the source.

Legend:
[1] = molecular target: human KHK-C (Homo sapiens (Human), UniProt P50053); assay: KHK Biochemical Assay (IC50), ADP-Glo, KHK-C; details: average of at least two separate assays
Method in brief: (§1)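 His-tagged enzyme expressed in BL21 (DE3), Ni-NTA purified. Compounds, serially diluted 1:3 in DMSO, pre-incubated 30 min with enzyme in 50 mM Hepes pH 7.4, 140 mM KCl, 5 mM MgCl2, 0.01% Triton-X, then ATP and fructose added; 4 h at room temperature. ADP formation read by ADP-Glo luminescence.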

[2] = molecular target: human KHK-A (Homo sapiens (Human), UniProt P50053); assay: KHK Biochemical Assay (IC50), ADP-Glo, KHK-A; details: average of at least two separate assays
Method in brief: as §1

[3] = molecular target: KHK-C expressed in NRK-52E cells (Homo sapiens (Human), UniProt P50053); assay: KHK-C Cell-based Assay (EC50), NRK CTG, fructose-mediated ATP-depletion
KHK-C expressed in NRK-52E cells, sequence (P50053 whole entry): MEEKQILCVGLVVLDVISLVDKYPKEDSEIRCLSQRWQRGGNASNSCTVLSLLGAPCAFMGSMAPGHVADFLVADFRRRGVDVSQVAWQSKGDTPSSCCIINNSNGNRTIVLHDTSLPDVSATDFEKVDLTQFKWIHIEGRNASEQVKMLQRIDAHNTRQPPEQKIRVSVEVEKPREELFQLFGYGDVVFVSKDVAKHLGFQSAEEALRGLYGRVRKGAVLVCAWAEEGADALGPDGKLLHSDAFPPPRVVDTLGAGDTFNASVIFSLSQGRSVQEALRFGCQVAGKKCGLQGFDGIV

human KHK-C, sequence (P50053 whole entry): as above
human KHK-A, sequence (P50053 other isoform, or with tags, fused parts or gaps): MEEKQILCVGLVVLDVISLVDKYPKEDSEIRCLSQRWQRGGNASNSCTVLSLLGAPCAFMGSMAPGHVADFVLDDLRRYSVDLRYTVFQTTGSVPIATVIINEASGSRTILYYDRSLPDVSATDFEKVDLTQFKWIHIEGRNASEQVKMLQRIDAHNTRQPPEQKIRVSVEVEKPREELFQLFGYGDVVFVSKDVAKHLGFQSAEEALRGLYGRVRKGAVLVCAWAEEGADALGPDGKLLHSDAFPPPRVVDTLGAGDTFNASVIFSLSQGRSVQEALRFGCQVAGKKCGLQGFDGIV

Row | SMILES | IC50 [1] | IC50 [2] | EC50 [3] | IC50 ([1]; ADP-Glo) | IC50 ([2]; ADP-Glo) | EC50 ([3]; read-out: NRK CTG EC50, NRK-52E cells, fructose-mediated ATP-depletion, Cell-Titer Glo)
1 | C[C@H]1CCN1c1nc2c(c(-c3ccc4c(=O)[nH]c(=O)[nH]c4c3)n1)CCC2 [Example 426, 7-[2-[(2S)-2-methylazetidin-1-yl]-6,7-dihydro-5H-cyclopenta[d]pyrimidin-4-yl]-1H-quinazoline-2,4-dione] | 40.1 nM | 17.9 nM | 92.8 nM |  |  | 
2 | C[C@H]1CCN1c1nc2c(c(-c3ccc(C45CC(C(=O)O)(C4)C5)cc3)n1)CCC2 [Example 249, 3-[4-[2-[(2S)-2-methylazetidin-1-yl]-6,7-dihydro-5H-cyclopenta[d]pyrimidin-4-yl]phenyl]bicyclo[1.1.1]pentane-1-carboxylic acid] |  |  | 517 nM | 96.3 nM | 105 nM | 
3 | C[C@@H]1CN(c2nc3c(c(-c4ccc(C(N)=O)cc4)n2)CCC3)[C@H]1C [Example 106] |  |  |  | 126 nM | 148 nM | 209 nM
4 | C[C@H]1CCN1c1nc2c(c(-c3ccc(C(O)C4(C#N)CC4)cc3)n1)CCC2 (stereo partly drawn) [Example 255, 1-[hydroxy-[4-[2-[(2S)-2-methylazetidin-1-yl]-6,7-dihydro-5H-cyclopenta[d]pyrimidin-4-yl]phenyl]methyl]cyclopropanecarbonitrile] |  |  | 70.7 nM | 65.9 nM | 49.8 nM | 
5 | C[C@H]1CCN1c1nc2c(c(-c3cc4c(C(N)=O)cccc4[nH]3)n1)CCC2 [Example 156, (S)-2-(2-(2-methylazetidin-1-yl)-6,7-dihydro-5H-cyclopenta[d]pyrimidin-4-yl)-1H-indole-4-carboxamide] |  |  | 145 nM | 82 nM | 99.9 nM | 
6 | C[C@H]1CCN1c1nc2c(c(-c3ccc4c(c3)[C@]3(C[C@H]3C(N)=O)C(=O)N4)n1)CCC2 (mixture of isomers) [Example 412, rac-(1R,2R)-5′-(2-((S)-2-methylazetidin-1-yl)-6,7-dihydro-5H-cyclopenta[d]pyrimidin-4-yl)-2′-oxospiro[cyclopropane-1,3′-indoline]-2-carboxamide] | 29.2 nM | 57.3 nM | 406 nM |  |  | 
7 | C[C@H]1CCN1c1nc2c(c(-c3cnc(CN)s3)n1)CCC2 [Example 221, (S)-(5-(2-(2-methylazetidin-1-yl)-6,7-dihydro-5H-cyclopenta[d]pyrimidin-4-yl)thiazol-2-yl)methanamine] |  |  | 94.4 nM | 17.2 nM | 17.8 nM | 
8 | C[C@H]1[C@H](O)CN1c1nc(-c2ccc3c(c2)OC[C@]32CN(C)C(=O)N2)c2c(n1)C(F)(F)CC2 (single isomer, unassigned) [Example 701] | 20.5 nM | 31.8 nM | 108 nM |  |  | 
9 | C[C@H]1CCN1c1nc2c(c(-c3cc4c(C(=O)O)cccc4[nH]3)n1)CCC2 [Example 155, (S)-2-(2-(2-methylazetidin-1-yl)-6,7-dihydro-5H-cyclopenta[d]pyrimidin-4-yl)-1H-indole-4-carboxylic acid] |  |  | 4790 nM | 99.5 nM | 232 nM | 
10 | C[C@H]1CCN1c1nc2c(c(-c3ccc(F)c(S(N)(=O)=O)c3)n1)CCC2 [Example 122, (S)-2-fluoro-5-(2-(2-methylazetidin-1-yl)-6,7-dihydro-5H-cyclopenta[d]pyrimidin-4-yl)benzenesulfonamide] |  |  | 51.8 nM | 41.8 nM | 44.5 nM | 
11 | CCOc1cc(-c2nc(N3CC[C@@H]3C)nc3c2CCC3)ccc1C(N)=O [Example 319, (S)-2-ethoxy-4-(2-(2-methylazetidin-1-yl)-6,7-dihydro-5H-cyclopenta[d]pyrimidin-4-yl)benzamide] |  |  | 37.3 nM | 20.9 nM | 25 nM | 
12 | C[C@H]1C[C@H](C)N1c1nc2c(c(-c3cccc(S(N)(=O)=O)c3)n1)CCC2 [Example 208, 3-[2-[(28,48)-2,4-dimethylazetidin-1-yl]-6,7-dihydro-5H-cyclopenta[d]pyrimidin-4-yl]benzenesulfonamide] |  |  | 36.4 nM | 46.6 nM | 36.7 nM | 
13 | C[C@H]1[C@H](O)CN1c1nc2c(c(-c3ccc(C(N)=O)c(Cl)c3)n1)CCC2 [Example 308] |  |  | 294 nM | 97.5 nM | 130 nM | 
